What all share (format): functional, organism-based
The test system of assay [1] is Mycobacterium tuberculosis. The assay can be described thus: Antimycobacterial activity against Mycobacterium tuberculosis H37Rv at 0.006 mg/ml by rapid radiometric method.
A further assay relates to Pseudomonas aeruginosa. Briefly: Antibacterial activity against Pseudomonas aeruginosa ATCC 27853 at 0.05 mg/ml by agar plate method.
For the next assay, the system named is Klebsiella pneumoniae. Briefly: Antibacterial activity against Klebsiella pneumoniae ATCC 10031 at 0.01 mg/ml by agar plate method.
Assay [2] relates to Mycobacterium tuberculosis. The assay can be described thus: Antimycobacterial activity against Mycobacterium tuberculosis H37Rv at 0.004 mg/ml by rapid radiometric method.
For assay [3], the system named is Bacillus subtilis. Briefly: Antibacterial activity against Bacillus subtilis ATCC 6633 at 0.01 mg/ml by agar plate method.
The next assay has as its system Serratia marcescens. Briefly: Antibacterial activity against Serratia marcescens ATCC 13880 at 0.1 mg/ml by agar plate method.
Assay [4] has as its system Enterococcus faecalis. The assay can be described thus: Antibacterial activity against Streptococcus faecalis at 0.01 mg/ml by agar plate method.
In assay [5] the test system is Staphylococcus aureus. Briefly: Antibacterial activity against Staphylococcus aureus ATCC 25923 at 0.01 mg/ml by agar plate method.
In assay [6] the test system is Bacillus pumilus. The assay can be described thus: Antibacterial activity against Bacillus pumilus ATCC 27142 at 0.01 mg/ml by agar plate method.
The test system of another assay is Pantoea agglomerans. The assay can be described thus: Antibacterial activity against Pantoea agglomerans ATCC 27155 at 0.01 mg/ml by agar plate method.
The subject of the next assay is Enterobacter cloacae. Briefly: Antibacterial activity against Enterobacter cloacae ATCC 13047 at 0.01 mg/ml by agar plate method.
The next assay has as its system Bacillus cereus. The assay can be described thus: Antibacterial activity against Bacillus cereus at 0.01 mg/ml by agar plate method.
The subject of another assay is Escherichia coli. The assay can be described thus: Antibacterial activity against Escherichia coli ATCC 25922 at 0.01 mg/ml by agar plate method.
Assay [7] concerns Bacillus pumilus. Briefly: Antibacterial activity against Bacillus pumilus ATCC 27142 at 0.1 mg/ml by agar plate method.
The test system of assay [8] is Staphylococcus aureus. The assay can be described thus: Antibacterial activity against Staphylococcus aureus ATCC 25923 at 0.1 mg/ml by agar plate method.
Assay [9] relates to Enterococcus faecalis. Briefly: Antibacterial activity against Streptococcus faecalis at 0.1 mg/ml by agar plate method.
In assay [10] the test system is Bacillus subtilis. The assay can be described thus: Antibacterial activity against Bacillus subtilis ATCC 6633 at 0.1 mg/ml by agar plate method.
In assay [11] the test system is Mycobacterium tuberculosis. The assay can be described thus: Antimycobacterial activity against Mycobacterium tuberculosis H37Rv at 0.1 mg/ml by rapid radiometric method.

Drawing on ChEMBL document CHEMBL1148958, “Antibacterial activity of naphthoquinones and triterpenoids from Euclea natalensis root bark” (J Nat Prod, 2004), this text covers Activity for five compounds.

SMILES strings stand for the structures. Active and inactive are the calls of the source. The rule behind the calls is not given here.

As to `CC[C@@H](CO)NCCN[C@@H](CC)CO`, the result in assay [1] was Active.

Turning to `CN[C@@H]1[C@H](O[C@H]2[C@H](O[C@H]3[C@H](O)[C@@H](O)[C@H](N=C(N)N)[C@@H](O)[C@@H]3N=C(N)N)O[C@@H](C)[C@]2(O)C=O)O[C@@H](CO)[C@H](O)[C@H]1O`, the result (in the assay with Pseudomonas aeruginosa; in the assay with Klebsiella pneumoniae; in assay [2]; in the assay on Bacillus subtilis [3]; in the assay with Serratia marcescens; in the assay with Enterococcus faecalis [4]) was Active. Further, the result with Staphylococcus aureus [5], in the assay on Bacillus pumilus [6], in the assay on Pantoea agglomerans, with Enterobacter cloacae, with Bacillus cereus and with Escherichia coli was Active.

As for `C=C(C)[C@@H]1CC[C@]2(C)CC[C@]3(C)[C@@H](CC[C@@H]4[C@@]5(C)CC[C@H](OC(=O)/C=C/c6ccc(OC)c(O)c6)C(C)(C)[C@@H]5CC[C@]43C)[C@H]12`, the outcome in the assay with Bacillus pumilus [7] was Active.

Regarding `Cc1cc(O)c2c(c1)[C@H](O)CCC2=O`, the outcome (in the assay with Staphylococcus aureus [8]; in the assay on Enterococcus faecalis [9]; in the assay on Bacillus subtilis [10]; in [11]; in the assay with Bacillus pumilus [7]) was Active.

Regarding `Cc1cc(O)c2c(c1)C(=O)C[C@H](c1c(C)cc3c(c1O)C(=O)CCC3O)[C@@H]2O` (stereo not given in full), in the assay with Bacillus pumilus [7], the result was inactive.
